Test results published in US20090012103A1, “SUBSTITUTED HETEROCYCLIC COMPOUNDS” (priority 2007, published 2009).

Each compound was assayed against wild-type human cardiac sodium channel, hNav1.5 (Homo sapiens, UniProt Q14524) (assay: Late INa screening assay (late sodium current, PatchXpress whole cell patch clamp)). Conditions: compound at 10 μM; read-out: Late INa % blk.
Type: cell-based

Chain of wild-type human cardiac sodium channel, hNav1.5 (Q14524 whole entry): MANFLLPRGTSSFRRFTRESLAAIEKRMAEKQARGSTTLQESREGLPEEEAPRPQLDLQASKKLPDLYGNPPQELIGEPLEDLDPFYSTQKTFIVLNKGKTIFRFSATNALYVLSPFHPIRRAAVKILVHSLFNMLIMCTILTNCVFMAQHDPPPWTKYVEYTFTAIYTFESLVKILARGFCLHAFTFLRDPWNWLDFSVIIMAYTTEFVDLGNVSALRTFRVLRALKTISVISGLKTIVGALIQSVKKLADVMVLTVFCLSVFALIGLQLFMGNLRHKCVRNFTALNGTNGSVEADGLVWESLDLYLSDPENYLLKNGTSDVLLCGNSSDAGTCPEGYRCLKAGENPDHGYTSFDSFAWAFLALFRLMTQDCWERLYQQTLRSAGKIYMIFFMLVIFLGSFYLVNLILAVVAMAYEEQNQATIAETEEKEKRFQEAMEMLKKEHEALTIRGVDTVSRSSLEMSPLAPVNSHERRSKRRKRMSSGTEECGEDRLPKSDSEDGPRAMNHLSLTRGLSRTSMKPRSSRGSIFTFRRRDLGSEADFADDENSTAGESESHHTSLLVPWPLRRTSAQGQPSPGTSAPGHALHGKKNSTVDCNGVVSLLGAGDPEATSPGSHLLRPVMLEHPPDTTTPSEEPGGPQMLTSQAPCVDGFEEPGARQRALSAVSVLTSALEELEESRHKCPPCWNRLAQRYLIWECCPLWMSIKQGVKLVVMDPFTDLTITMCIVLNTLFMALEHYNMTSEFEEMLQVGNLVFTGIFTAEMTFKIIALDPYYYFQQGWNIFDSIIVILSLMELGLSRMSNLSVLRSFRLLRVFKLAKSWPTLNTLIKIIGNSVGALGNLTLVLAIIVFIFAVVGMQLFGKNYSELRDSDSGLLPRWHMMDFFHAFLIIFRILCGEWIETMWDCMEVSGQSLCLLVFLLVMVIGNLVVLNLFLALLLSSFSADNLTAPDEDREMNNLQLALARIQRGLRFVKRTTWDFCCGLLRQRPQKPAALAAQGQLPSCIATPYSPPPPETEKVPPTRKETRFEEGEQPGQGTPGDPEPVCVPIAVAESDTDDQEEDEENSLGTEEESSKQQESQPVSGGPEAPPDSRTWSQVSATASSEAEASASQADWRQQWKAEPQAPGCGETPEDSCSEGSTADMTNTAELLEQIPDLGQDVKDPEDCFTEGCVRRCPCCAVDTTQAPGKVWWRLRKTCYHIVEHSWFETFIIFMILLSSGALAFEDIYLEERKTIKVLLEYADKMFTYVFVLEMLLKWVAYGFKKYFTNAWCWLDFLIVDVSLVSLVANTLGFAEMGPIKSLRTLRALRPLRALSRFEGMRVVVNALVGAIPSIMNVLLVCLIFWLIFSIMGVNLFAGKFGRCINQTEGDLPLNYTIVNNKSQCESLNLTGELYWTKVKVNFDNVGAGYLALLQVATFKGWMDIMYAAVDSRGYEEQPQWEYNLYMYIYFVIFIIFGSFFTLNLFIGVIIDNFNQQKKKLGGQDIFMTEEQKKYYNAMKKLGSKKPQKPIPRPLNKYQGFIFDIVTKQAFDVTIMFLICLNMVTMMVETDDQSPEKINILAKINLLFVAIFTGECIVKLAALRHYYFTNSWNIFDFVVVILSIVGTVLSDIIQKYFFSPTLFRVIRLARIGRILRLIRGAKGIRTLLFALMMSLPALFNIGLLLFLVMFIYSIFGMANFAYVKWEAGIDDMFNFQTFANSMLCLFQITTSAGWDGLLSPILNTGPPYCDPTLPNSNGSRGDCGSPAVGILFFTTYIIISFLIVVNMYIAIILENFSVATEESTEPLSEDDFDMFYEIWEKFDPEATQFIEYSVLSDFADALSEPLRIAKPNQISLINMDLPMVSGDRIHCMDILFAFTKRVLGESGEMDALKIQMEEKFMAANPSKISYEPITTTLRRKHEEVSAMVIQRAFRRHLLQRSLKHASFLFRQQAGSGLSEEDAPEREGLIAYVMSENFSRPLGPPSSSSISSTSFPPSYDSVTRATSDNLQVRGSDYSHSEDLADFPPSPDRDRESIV

Row | SMILES | inhibition at 10 µM
1 | CCOC(=O)C1=C(C)Nc2nnnn2C1c1ccc(OC)c2ccccc12 (stereo not shown) [PT-504, ethyl 7-(4-methoxynaphthalen-1-yl)-5-methyl-4,7-dihydrotetrazolo[1,5-a]pyrimidine-6-carboxylate] | 28.2%
2 | CCOC(=O)CN1C(C)=C(C(=O)OCC)C(c2cccc3ccccc23)n2nnnc21 (stereo not shown) [PT-449, ethyl 4-(2-ethoxy-2-oxoethyl)-5-methyl-7-(naphthalen-1-yl)-4,7-dihydrotetrazolo[1,5-a]pyrimidine-6-carboxylate] | 47.6%
3 | CCOC(=O)C1=C(C)NC(C)=C(C(=O)OCC)C1c1ccc(-c2ccc(Cl)cc2)o1 [PT-118, diethyl 4-(5-(4-chlorophenyl)furan-2-yl)-2,6-dimethyl-1,4-dihydropyridine-3,5-dicarboxylate] | -3.8%
4 | CC1=C(C(=O)OC2Cc3ccccc3C2)C(c2cccc3ccccc23)n2nnnc2N1 (stereo not shown) [PT-260, 2,3-dihydro-1H-inden-2-yl 5-methyl-7-(naphthalen-1-yl)-4,7-dihydrotetrazolo[1,5-a]pyrimidine-6-carboxylate] | 74.8%
5 | CCn1c2ccccc2c2cc(C3C(C(=O)OCc4ccccc4)=C(C)Nc4nnnn43)ccc21 (stereo not shown) [PT-422, benzyl 7-(9-ethyl-9H-carbazol-3-yl)-5-methyl-4,7-dihydrotetrazolo[1,5-a]pyrimidine-6-carboxylate] | 35.2%
6 | CCOC(=O)C1=C(C)NC(C)=C(C(=O)OCC)C1c1ccoc1 [PT-120, diethyl 4-(furan-3-yl)-2,6-dimethyl-1,4-dihydropyridine-3,5-dicarboxylate] | 25.7%
7 | CCOC(=O)C1=C(C)Nc2[nH]ncc2C1c1c(Br)sc2ccccc12 (stereo not shown) [PT-447, ethyl 4-(2-bromobenzo[b]thiophen-3-yl)-6-methyl-4,7-dihydro-1H-pyrazolo[3,4-b]pyridine-5-carboxylate] | 77.4%
8 | CC1=C(C(=O)OCc2ccccc2)C(c2ccccc2-c2cccc(C(=O)O)c2)C2=C(CCCC2=O)N1 (stereo not shown) [PT-248, 2′-(3-(benzyloxycarbonyl)-2-methyl-5-oxo-1,4,5,6,7,8-hexahydroquinolin-4-yl)biphenyl-3-carboxylic acid] | 27.2%
9 | CCOC(=O)C1=C(C(F)(F)F)Nc2nnnn2C1c1cccs1 (stereo not shown) [PT-016, ethyl 7-(thiophen-2-yl)-5-(trifluoromethyl)-4,7-dihydrotetrazolo[1,5-a]pyrimidine-6-carboxylate] | 30.7%
10 | CC1=C(C(=O)OCc2ccccc2)C(c2ccccc2F)n2nnnc2N1 (stereo not shown) [PT-391, benzyl 7-(2-fluorophenyl)-5-methyl-4,7-dihydrotetrazolo[1,5-a]pyrimidine-6-carboxylate] | 32.4%
11 | COc1cc(OC)c(C2C(C(=O)OCc3ccccc3)=C(C)Nc3nnnn32)c(OC)c1 (stereo not shown) [PT-343, benzyl 5-methyl-7-(2,4,6-trimethoxyphenyl)-4,7-dihydrotetrazolo[1,5-a]pyrimidine-6-carboxylate] | 34.4%
12 | COc1cc([N+](=O)[O-])ccc1C1C(C(=O)OCc2ccccc2)=C(C)Nc2nnnn21 (stereo not shown) [PT-395, benzyl 7-(2-methoxy-4-nitrophenyl)-5-methyl-4,7-dihydrotetrazolo[1,5-a]pyrimidine-6-carboxylate] | 48.7%
13 | CSc1ccc(C2C(C(=O)OCc3ccccc3)=C(C)Nc3nnnn32)cc1 (stereo not shown) [PT-356, benzyl 5-methyl-7-(4-(methylthio)phenyl)-4,7-dihydrotetrazolo[1,5-a]pyrimidine-6-carboxylate] | 16.4%
14 | COCCOC(=O)C1=C(C)NC2=C(C(=O)CC(C)(C)C2)C1c1ccc(Oc2ccccc2)cc1 (stereo not shown) [PT-156, 2-methoxyethyl 2,7,7-trimethyl-5-oxo-4-(4-phenoxyphenyl)-1,4,5,6,7,8-hexahydroquinoline-3-carboxylate] | 36.6%
15 | CC1=C(C(=O)OCc2ccccc2)C(c2cccc3c2OCCO3)n2nnnc2N1 (stereo not shown) [PT-036, benzyl 7-(2,3-dihydrobenzo[b][1,4]dioxin-5-yl)-5-methyl-4,7-dihydrotetrazolo[1,5-a]pyrimidine-6-carboxylate] | 41%
16 | CC1=C(C(=O)OCc2ccccc2)[C@@H](c2ccccc2-c2cccc(C#N)c2)n2nnnc2N1 [PT-239, (R)-benzyl 7-(3′-cyanobiphenyl-2-yl)-5-methyl-4,7-dihydrotetrazolo[1,5-a]pyrimidine-6-carboxylate] | 94.8%
17 | CC1=C(C(=O)OCc2ccccc2)C(c2cccs2)c2cn[nH]c2N1 (stereo not shown) [PT-370, benzyl 6-methyl-4-(thiophen-2-yl)-4,7-dihydro-1H-pyrazolo[3,4-b]pyridine-5-carboxylate] | 24.7%

Row | SMILES | inhibition at 10 µM
18 | CC1=C(C(=O)OCc2ccccc2)C(c2ccccc2Br)n2nnnc2N1 (stereo not shown) [PT-387, benzyl 7-(2-bromophenyl)-5-methyl-4,7-dihydrotetrazolo[1,5-a]pyrimidine-6-carboxylate] | 84.8%
19 | CC1=C(C(=O)N[C@@H](C)c2ccccc2)C(c2cccc3ccccc23)n2nnnc2N1 (stereo partly drawn) [PT-071, 5-methyl-7-(naphthalen-1-yl)-N-((S)-1-phenylethyl)-4,7-dihydrotetrazolo[1,5-a]pyrimidine-6-carboxamide] | 16.3%
20 | CC1=C(C(=O)OCc2ccccc2)C(c2ccc(N(C)C)c3ccccc23)n2ncc(C(=O)O)c2N1 (stereo not shown) [PT-311, 6-(benzyloxycarbonyl)-7-(4-(dimethylamino)naphthalen-1-yl)-5-methyl-4,7-dihydropyrazolo[1,5-a]pyrimidine-3-carboxylic acid] | -7.5%
21 | CC1=C(C(=O)OCc2ccccc2)C(c2cccc3ccccc23)n2nnnc2N1Cc1nnn[nH]1 (stereo not shown) [PT-326, benzyl 4-((1H-tetrazol-5-yl)methyl)-5-methyl-7-(naphthalen-1-yl)-4,7-dihydrotetrazolo[1,5-a]pyrimidine-6-carboxylate] | 39.9%
22 | CC1=C(C(=O)OCc2ccccc2)C(c2cc3ccccc3s2)n2nnnc2N1 (stereo not shown) [PT-043, benzyl 7-(benzo[b]thiophen-2-yl)-5-methyl-4,7-dihydrotetrazolo[1,5-a]pyrimidine-6-carboxylate] | 53.8%
23 | CCOC(=O)c1c(C)nc2[nH]ncc2c1-c1ccccc1-c1cccc(C(C)=O)c1 [PT-450, ethyl 4-(3′-acetylbiphenyl-2-yl)-6-methyl-1H-pyrazolo[3,4-b]pyridine-5-carboxylate] | 7.3%
24 | CC1=C(C(=O)OCc2ccccc2)C(c2ccc(B(O)O)cc2)n2nnnc2N1 (stereo not shown) [PT-300, 4-(6-(benzyloxycarbonyl)-5-methyl-4,7-dihydrotetrazolo[1,5-a]pyrimidin-7-yl)phenylboronic acid] | 14.4%
25 | CC1=C(C(=O)OCc2ccc(-n3cccn3)cc2)C(c2cccc3ccccc23)n2nnnc2N1 (stereo not shown) [PT-289, 4-(1H-pyrazol-1-yl)benzyl 5-methyl-7-(naphthalen-1-yl)-4,7-dihydrotetrazolo[1,5-a]pyrimidine-6-carboxylate] | 3.3%
26 | COC(=O)C1=C(C)Nc2nnnn2C1c1c(-c2cccc(C(=O)O)c2)sc2ccccc12 (stereo not shown) [PT-275, 3-(3-(6-(methoxycarbonyl)-5-methyl-4,7-dihydrotetrazolo[1,5-a]pyrimidin-7-yl)benzo[b]thiophen-2-yl)benzoic acid] | 9.4%
27 | CC1=C(C(=O)OCc2ccccc2)C(c2cc(-c3ccsc3)cs2)n2nnnc2N1 (stereo not shown) [PT-398, benzyl 7-(3,3′-bithiophen-5-yl)-5-methyl-4,7-dihydrotetrazolo[1,5-a]pyrimidine-6-carboxylate] | 18.3%
28 | CCOC(=O)C1=C(C)Nc2ccnn2C1c1ccc(OC)cc1C#N (stereo not shown) [PT-491, ethyl 7-(2-cyano-4-methoxyphenyl)-5-methyl-4,7-dihydropyrazolo[1,5-a]pyrimidine-6-carboxylate] | -0.9%
29 | CC1=C(C(=O)OCc2ccccc2)C(c2ccc(S(C)(=O)=O)cc2[N+](=O)[O-])n2nnnc2N1 (stereo not shown) [PT-353, benzyl 5-methyl-7-(4-(methylsulfonyl)-2-nitrophenyl)-4,7-dihydrotetrazolo[1,5-a]pyrimidine-6-carboxylate] | 5.8%
30 | CCOC(=O)C1=C(C)Nc2nnnn2C1c1ccccc1N1CCC(C(=O)OCC)CC1 (stereo not shown) [PT-484, ethyl 7-(2-(4-(ethoxycarbonyl)piperidin-1-yl)phenyl)-5-methyl-4,7-dihydrotetrazolo[1,5-a]pyrimidine-6-carboxylate] | 36.1%
31 | CC1=C(C(=O)N[C@H](C)c2ccccc2)C(c2cccc3ccccc23)n2nnnc2N1 (stereo partly drawn) [PT-070, 5-methyl-7-(naphthalen-1-yl)-N-((R)-1-phenylethyl)-4,7-dihydrotetrazolo[1,5-a]pyrimidine-6-carboxamide] | 9.9%
32 | CC1=C(C(=O)OCc2cccc(-c3nnn[nH]3)c2)C(c2cccc3ccccc23)n2nnnc2N1 (stereo not shown) [PT-271, 3-(1H-tetrazol-5-yl)benzyl 5-methyl-7-(naphthalen-1-yl)-4,7-dihydrotetrazolo[1,5-a]pyrimidine-6-carboxylate] | 5.8%
33 | COC(=O)C1=C(C)Nc2ccnn2C1c1nc(C)cs1 (stereo not shown) [PT-511, methyl 5-methyl-7-(4-methylthiazol-2-yl)-4,7-dihydropyrazolo[1,5-a]pyrimidine-6-carboxylate] | 19.5%
34 | COc1ccc(-c2ccccc2C2C(C(=O)OCc3ccccc3)=C(C)Nc3nnnn32)cc1 (stereo not shown) [PT-420, benzyl 7-(4′-methoxybiphenyl-2-yl)-5-methyl-4,7-dihydrotetrazolo[1,5-a]pyrimidine-6-carboxylate] | 75.3%

Same assay, conditions: read-out: Late INa % blk

Row | SMILES | inhibition at 10 µM
35 | CC1=C(C(=O)OC2CCCc3ccccc32)C(c2cccc3ccccc23)n2nnnc2N1 (stereo not shown) [PT-001, 1,2,3,4-tetrahydronaphthalen-1-yl 5-methyl-7-(naphthalen-1-yl)-4,7-dihydrotetrazolo[1,5-a]pyrimidine-6-carboxylate] | 28.8%
36 | c1ccc2c(c1)CCC1=C2C(c2cccc3ccccc23)n2nnnc2N1 (stereo not shown) [PT-198, 12-(naphthalen-1-yl)-5,6,7,12-tetrahydrobenzo[f]tetrazolo[5,1-b]quinazoline] | 50.9%
37 | CC1=C(C(=O)OCc2ccccc2)C(c2cccc(Oc3ccccc3)c2)n2nnnc2N1 (stereo not shown) [PT-024, benzyl 5-methyl-7-(3-phenoxyphenyl)-4,7-dihydrotetrazolo[1,5-a]pyrimidine-6-carboxylate] | 72.6%
